Measured values as given in patent publication US20220002267A1, “TYROSINE KINASE 2 INHIBITORS, PREPARATION METHODS AND MEDICINAL USES THEREOF” (Eternity Bioscience Inc., priority 2020, published 2022).

Tests used:
Tyk2 JH2 Pseudokinase = biological target: T1, Tyk2 JH2 Pseudokinase (Homo sapiens, UniProt P29597); assay: KdELECT Competition Binding Assay; details: 11-point 3-fold dilution series; performed by Eurofins DiscoverX
T1 construct: purchased Eurofins DiscoverX Corporation (CRO); host or cells: E. coli BL21-derived host (T7 phage) or HEK-293 cells
T1 sequence (P29597 589-875 limits assumed): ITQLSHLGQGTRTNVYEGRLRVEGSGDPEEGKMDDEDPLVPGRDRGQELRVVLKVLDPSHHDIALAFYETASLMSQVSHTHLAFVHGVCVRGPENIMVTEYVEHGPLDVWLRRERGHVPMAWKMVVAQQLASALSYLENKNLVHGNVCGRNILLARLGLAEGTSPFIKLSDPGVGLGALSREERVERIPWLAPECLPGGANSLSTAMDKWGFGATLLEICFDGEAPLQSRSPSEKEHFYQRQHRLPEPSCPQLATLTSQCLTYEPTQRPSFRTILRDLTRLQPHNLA
Protocol: The KdELECT Competition Binding Assay is performed by a CRO, Eurofins DiscoverX Corporation following the established standard protocol (DiscoverX, San Diego, Calif.). Briefly, Kinase-tagged T7 phage strains were prepared in an E. coli host derived from the BL21 strain. E. coli were grown to log-phase and infected with T7 phage and incubated with shaking at 32° C. until lysis. The lysates were centrifuged and filtered to remove cell debris. The remaining kinases were produced in HEK-293 cells and subsequently tagged with DNA for qPCR detection. Streptavidin-coated magnetic beads were treated with biotinylated small molecule ligands for 30 minutes at room temperature to generate affinity resins for kinase assays. The liganded beads were blocked with excess biotin and washed with blocking buffer (SeaBlock (Pierce), 1% BSA, 0.05% Tween 20, 1 mM DTT) to remove unbound ligand and to reduce nonspecific binding. Binding reactions were assembled by combining kinases, liganded affinity beads, and test compounds in 1× binding buffer (20% SeaBlock, 0.17×PBS, 0.05% Tween 20, 6 mM DTT). Test compounds were prepared as 111-fold stocks in 100% DMSO. Kds were determined using an 11-point 3-fold compound dilution series with three DMSO control points. All compounds for Kd measurements are distributed by acoustic transfer (non-contact dispensing) in 100% DMSO. The compounds were then diluted directly into the assays such that the final concentration of DMSO was 0.9%. All reactions performed in polypropylene 384-well plate. Each was a final volume of 0.02 mL. The assay plates were incubated at room temperature with shaking for 1 hour and the affinity beads were washed with wash buffer (1×PBS, 0.05% Tween 20). The beads were then re-suspended in elution buffer (1×PBS, 0.05% Tween 20, 0.5 μM non-biotinylated affinity ligand) and incubated at room temperature with shaking for 30 minutes. The kinase concentration in the eluates was measured by quantitative PCR.
Compound Handling: An 11-point 3-fold serial dilution of each test compound was prepared in 100% DMSO at 100-fold final test concentration and subsequently diluted to 1-fold in the assay (final DMSO concentration=1%). Most Kds were determined using a compound top concentration=30,000 nM. If the initial Kd determined was <0.5 nM (the lowest concentration tested), the measurement was repeated with a serial dilution starting at a lower top concentration.

[1] = tested on: Tyk2-mediated, IL23-induced STAT3 phosphorylation in human Kit225 T cell line; assay: IL-23_Kit225 T Cell Assay (phosphorylated-STAT3, AlphaLISA); assay type: cell-based; details: Kit225 cells, compound 1 hour, human recombinant IL-23 20 minutes, pSTAT3
Protocol: (§1) Kit225 cells (licensed from Professor Toshiyuki Hori, Ritsumeikan University, Japan) were seeded in 384-well plate at a density of 1×10^5 cells/well in 4 μL Hank's Balanced Salt Solution (HBSS, Gibco), and incubated for 2 hours in a humidified, 5% CO2 cell culture incubator at 37° C. The cells were treated with serial diluted compounds for 1 hour and stimulated with human recombinant IL-23 (R&D Systems) for 20 minutes. The treated cells were then lysed and cellular phosphorylated-STAT3 levels were measured by AlphaLISA (PerkinElmer) according to the manufacture's instructions. Inhibition data were calculated by comparison to vehicle control wells for 0% inhibition and non-stimulated control wells for 100% inhibition. Dose response curves were then generated to determine the concentration required to suppress 50% of cellular response (IC50) as derived by non-linear regression analysis using GraphPad Prism.

[2] = tested on: Tyk2-mediated, IFNα-induced STAT1 phosphorylation in human Kit225 T cell line; assay: IFNα_Kit225 T Cell Assay (phosphorylated-STAT1, AlphaLISA); assay type: cell-based; details: Kit225 cells, compound 1 hour, human recombinant IFNα 20 minutes, pSTAT1; read-out: IFN-α Kit225 (IC50)
Protocol: as §1, with “cells” for “cells (licensed from Professor Toshiyuki Hori, Ritsumeikan University, Japan)”, “0.5×10^5” for “1×10^5”, “HBSS,” for “Hank's Balanced Salt Solution (HBSS, Gibco),”, “IFNα (Biolegend)” for “IL-23 (R&D Systems)”, “phosphorylated-STAT1” for “phosphorylated-STAT3”

[3] = tested on: IL-12/IL-23 and Type I IFN pathways; details: Tokarski et al. 2015; cited from earlier work
[4] = tested on: experimental autoimmune disease models (psoriasis, SLE, and IBD); details: cited from earlier work

`CNC(=O)c1nnc(Nc2cccc(N3CCC3)n2)cc1Nc1cccc(-c2ncn(C)n2)c1OC` [Example A3, 6-((6-(azetidin-1-yl)pyridin-2-yl)amino)-4-((2-methoxy-3-(1-methyl-1H-1,2,4-triazol-3-yl)phenyl)amino)-N-methylpyridazine-3-carboxamide] gave a Kd (Tyk2 JH2 Pseudokinase) of 0.011 nM, an IC50 [1] of 15 nM and an IC50 [2] of 6 nM.

`CNC(=O)c1nnc(Nc2ccc(N3CC(F)(F)C3)cn2)cc1Nc1cccc(-c2ncn(C)n2)c1OC` [Example A2, 6-((5-(3,3-difluoroazetidin-1-yl)pyridin-2-yl)amino)-4-((2-methoxy-3-(1-methyl-1H-1,2,4-triazol-3-yl)phenyl)amino)-N-methylpyridazine-3-carboxamide] gave a Kd (Tyk2 JH2 Pseudokinase) of 0.0063 nM, an IC50 [1] of 31 nM and an IC50 [2] of 25 nM.

`CNC(=O)c1nnc(Nc2ccc(N3CCC3)cn2)cc1Nc1cccc(-c2ncn(C)n2)c1OC` [Example A1, 6-((5-(azetidin-1-yl)pyridin-2-yl)amino)-4-((2-methoxy-3-(1-methyl-1H-1,2,4-triazol-3-yl)phenyl)amino)-N-methylpyridazine-3-carboxamide] gave a Kd (Tyk2 JH2 Pseudokinase) of 0.067 nM, an IC50 [1] of 6.7 nM and an IC50 [2] of 11 nM.

For `[2H]C([2H])([2H])NC(=O)c1nnc(Nc2ccc(C3(O)COC3)cn2)cc1Nc1cccc(-c2ncn(C)n2)c1OC` [Example A5, 6-((5-(3-hydroxyoxetan-3-yl)pyridin-2-yl)amino)-4-((2-methoxy-3-(1-methyl-1H-1,2,4-triazol-3-yl)phenyl)amino)-N-(methyl-d3)pyridazine-3-carboxamide], the Kd (Tyk2 JH2 Pseudokinase) was 0.0043 nM, the IC50 [1] was 38 nM and the IC50 [2] was 230 nM.

For BMS986165, the “block of IL-12/IL-23 and Type I IFN pathways” value [3] is listed as “effectively block” and the “in vivo efficacy in experimental autoimmune disease models” value [4] is listed as “substantial in vivo efficacy”.

`[2H]C([2H])([2H])NC(=O)c1nnc(Nc2ccc(N3CC(OC)C3)cn2)cc1Nc1cccc(-c2ncn(C)n2)c1OC` [Example A4, 4-((2-methoxy-3-(1-methyl-1H-1,2,4-triazol-3-yl)phenyl)amino)-6-((5-(3-methoxyazetidin-1-yl)pyridin-2-yl)amino)-N-(methyl-d3)pyridazine-3-carboxamide] gave a Kd (Tyk2 JH2 Pseudokinase) of 0.0052 nM, an IC50 [1] of 5.9 nM and an IC50 [2] of 83 nM.
